In patent publication US6380218B1, “Nicotinamide derivatives” (Pfizer Inc, priority 1997, dated 2002) one finds melting point data, which are given here for 30 molecules.

What is called melting point is the temperature, or range, at which the solid turns liquid. Take `O=C(NCc1ccc(Cl)o1)c1cccnc1Oc1cncc(Cl)c1` [Example 57, N-(5-Chloro-furan-2-ylmethyl)-2-(5-chloro-pyridin-3-yloxy)-nicotinamide]: the melting point was in the range of 111 to 113 °C.
Next, `O=C(COc1ccccc1Cl)c1cccnc1Oc1ccc(F)cc1` [Example 266, 2-(2-Chloro-phenoxy)-1-[2-(4-fluoro-phenoxy)-pyridin-3-yl]-ethanone]: 92 to 93 °C; `Cc1noc2ccc(Oc3ncccc3C(=O)NCC3CCC(C(C)(C)O)CC3)cc12` (stereo not drawn) [Example 315, N-(4-(1-Hydroxy-1-methyl-ethyl)-cyclohexylmethyl)-2-(3-methyl-benzo(d)-isoxazol-5-yloxy)-nicotinamide]: 135 to 137 °C.
Under `O=C(NCc1nccs1)c1cccnc1Oc1cccnc1` [Example 24, 2-(Pyridin-3-yloxy)-N-thiazol-2-ylmethyl-nicotinamide] stands 94 to 96 °C; under `C[C@@H](NC(=O)c1cccnc1Oc1ccc(F)cc1)c1cccs1` [Example 7, (R)(+)2-(4-Fluoro-phenoxy)-N-(1-thiophen-2-yl-ethyl)-nicotinamide], 60 to 62 °C; under `CC(=O)c1cccc(Oc2ncccc2C(=O)NCc2ccc(C(C)(C)O)cc2F)c1` [Example 237, 2-(3-Acetyl-phenoxy)-N-[2-fluoro-4-(1-hydroxy-1-methyl-ethyl)-benzyl]nicotinamide], 68 to 70 °C.
Next, `O=C(CCc1ccccc1)c1cccnc1Oc1ccc(F)cc1` [Example 256, 1-[2-(4-Fluorophenoxy)-3-pyridinyl]-3-phenyl-1-propanone]: 82 to 83 °C.
`CC(C)(O)c1ccc(CC(=O)Nc2cccnc2Oc2cccc(C#N)c2)cc1` [Example 218, N-[2-(3-Cyano-phenoxy)-pyridin-3-yl]-2-[4-(1-hydroxy-1methyl-ethyl)-phenyl]-acetamide] displayed a melting point of 97 to 99 °C.
Next, `NC(=O)c1cccc(Oc2ncccc2C(=O)NCc2ccccc2Cl)c1` [Example 289, 2-(3-Carbamoyl-phenoxy)-N-(2-chloro-benzyl)-nicotinamide]: 153 to 155 °C; `CC(C)(O)c1ccc(CNC(=O)c2cccnc2Oc2ccc3c(c2)OCO3)cc1` [Example 293, 2-(Benzo[1,3]dioxol-5-yloxy)-N-[4-(1-hydroxy-1-methyl-ethyl)-benzyl]-nicotinamide]: 118 to 120 °C; `CC(C)(O)c1ccc(CC(=O)Nc2cccnc2Oc2cccnc2)cc1` [Example 211, 2-[4-(1-Hydroxy-1-methyl-ethyl)-phenyl]-N-[2-(pyridin-3-yloxy)-pyridin-3-yl]-acetamide]: 122 to 124 °C.
As to `O=C(NCc1ccc([N+](=O)[O-])cc1)c1cccnc1Oc1ccc(F)cc1` [Example 72, 2-(4-Fluoro-phenoxy)-N-(4-nitro-benzyl)-nicotinamide], the melting point lay in the range of 155 to 157 °C.
Under `CC(C)(O)c1ccc(CNC(=O)c2cccnc2Oc2ccc(F)c(C#N)c2)c(F)c1` [Example 99, 2-(3-Cyano-4-fluoro-phenoxy)-N-[2-fluoro4-(1-hydroxy-1-methyl-ethyl)-benzyl]-nicotinamide] stands 157 to 159 °C; under `O=C(NCc1ccc(C(=O)C(F)(F)F)cc1)c1cccnc1Oc1cccnc1` [Example 219, 2-(Pyridin-3-yloxy)-N-(4-trifluoroacetyl-benzyl)-nicotinamide], 134 to 136 °C.
Next, `O=C(NCc1scc(Cl)c1Cl)c1cccnc1Oc1ccc(F)cc1` [Example 68, N-(3,4-Dichloro-thiophen-2-ylmethyl)-2-(4-fluoro-phenoxy)-nicotinamide]: 132 to 134 °C.
`CC(C)(O)c1ccc(CNC(=O)c2cccnc2Oc2cccc3c2CCC3=O)cc1` [Example 284, N-[4-(1-Hydroxy-1-methyl-ethyl)-benzyl]-2-(1-oxo-indan-4-yloxy)-nicotinamide] showed a melting point of 145 to 147 °C.
As for `O=C(Cc1ccccc1)c1cccnc1Oc1ccc(F)cc1` [Example 264, 1-[2-(4-Fluoro-phenoxy)-pyridin-3-yl]-2-phenyl-ethanone], the melting point fell in the range of 81 to 82 °C.
Under `O=C(CCc1ccc(C(F)(F)F)cc1)c1cccnc1Oc1ccc(F)cc1` [Example 252, 1-[2-(4-Fluoro-phenoxy)-pyridin-3-yl]-3-(4-trifluoromethyl-phenyl)-propan-1-one] stands 94 to 95 °C; under `CC(C)(O)c1ccc(CNC(=O)c2cccnc2Oc2cccc(Cl)c2)cc1` [Example 187, 2-(3-Chloro-phenoxy)-N-[4-(1-hydroxy-1-methyl-ethyl)-benzyl]-nicotinamide], 57 to 59 °C; under `O=C(Cc1ccccc1Cl)Nc1cccnc1Oc1ccc(F)cc1` [Example 136, 2-(2-Chloro-phenyl)-N-[2-(4-fluoro-phenoxy)-pyridin-3-yl]-acetamide], 73 to 75 °C.
Next, `N#Cc1cccc(Oc2ncccc2C(=O)NCc2ccc(S(N)(=O)=O)cc2)c1` [Example 196, 2-(3-Cyano-phenoxy)-N-(4-sulfamoyl-benzyl)-nicotinamide]: 179 to 180 °C.
Next, `O=C(NCc1ccccc1Cl)c1cccnc1OCc1ccc(F)cc1` [Example 70, N-(2-Chloro-benzyl)-2-(4-fluoro-benzyloxy)-nicotinamide]: 64 to 66 °C.
`O=C(NCc1ccccc1Cl)c1cccnc1Oc1cccnc1` [Example 12, N-(2-Chloro-benzyl)-2-(pyridin-3-yloxy)-nicotinamide] showed a melting point of 123 to 125 °C.
Under `CC(=O)c1cccc(Oc2ncccc2C(=O)NCc2ccc(S(N)(=O)=O)cc2)c1` [Example 224, 2-(3-Acetyl-phenoxy)-N-(4-sulfamoyl-benzyl)-nicotinamide] stands 162 to 164 °C; under `CC(O)C1CCC(CNC(=O)c2cccnc2Oc2ccc(F)c(C#N)c2)CC1` (single isomer, unassigned; (-)) [Example 320, (−)-2-(3-Cyano-4-fluoro-phenoxy)-N-[4-(1-hydroxy-ethyl)-cyclohexylmethyl]-nicotinamide], 134 to 135 °C.
Under `Cc1ccsc1CNC(=O)c1cccnc1Oc1cccnc1` [Example 20, N-(3-Methyl-thiophen-2-ylmethyl)-2-(pyridin-3-yloxy)-nicotinamide] stands 89 to 91 °C.
Under `CC(=O)c1ccc(CC(=O)Nc2cccnc2Oc2ccc(F)cc2)cc1` [Example 137, 2-(4-Acetyl-phenyl)-N-[2-(4-fluoro-phenoxy)-pyridin-3-yl]-acetamide] stands 118 to 120 °C; under `CC(C)(O)c1ccc(CNC(=O)c2cccnc2Oc2ccc3ncoc3c2)cc1` [Example 302, 2-(Benzooxazol-6-yloxy)-N-(4-(1-hydroxy-1-methyl-ethyl)-benzyl)-nicotinamide], 92 to 94 °C.
On to `Cc1ccsc1CNC(=O)c1cccnc1Oc1cncc(Cl)c1` [Example 54, 2-(5-Chloro-pyridin-3-yloxy)-N-(3-methyl-thiophen-2-ylmethyl)-nicotinamide], for which the melting point lay in the range of 115 to 117 °C.
Next, `C[C@H](NC(=O)c1cccnc1Oc1ccc(F)cc1)c1cccs1` [Example 6, (S)(−)2-(4-Fluoro-phenoxy)-N-(1-thiophen-2-yl-ethyl)-nicotinamide]: 59 to 61 °C.
